In ChEMBL document CHEMBL1153103, “Bioisosterism of urea-based GCPII inhibitors: Synthesis and structure-activity relationship studies” (Bioorg Med Chem Lett, 2010):

Key:
[1] = molecular target: T1, Glutamate carboxypeptidase 2 (Homo sapiens, UniProt Q04609); experiment: Inhibition of glutamate carboxypeptidase 2 in human LNCaP cells by fluorescence based NAALADase assay; assay type: cell-based
[2] = molecular target: T1, Glutamate carboxypeptidase 2; experiment: Inhibition of human cloned glutamate carboxypeptidase 2

T1 sequence (Q04609 whole entry): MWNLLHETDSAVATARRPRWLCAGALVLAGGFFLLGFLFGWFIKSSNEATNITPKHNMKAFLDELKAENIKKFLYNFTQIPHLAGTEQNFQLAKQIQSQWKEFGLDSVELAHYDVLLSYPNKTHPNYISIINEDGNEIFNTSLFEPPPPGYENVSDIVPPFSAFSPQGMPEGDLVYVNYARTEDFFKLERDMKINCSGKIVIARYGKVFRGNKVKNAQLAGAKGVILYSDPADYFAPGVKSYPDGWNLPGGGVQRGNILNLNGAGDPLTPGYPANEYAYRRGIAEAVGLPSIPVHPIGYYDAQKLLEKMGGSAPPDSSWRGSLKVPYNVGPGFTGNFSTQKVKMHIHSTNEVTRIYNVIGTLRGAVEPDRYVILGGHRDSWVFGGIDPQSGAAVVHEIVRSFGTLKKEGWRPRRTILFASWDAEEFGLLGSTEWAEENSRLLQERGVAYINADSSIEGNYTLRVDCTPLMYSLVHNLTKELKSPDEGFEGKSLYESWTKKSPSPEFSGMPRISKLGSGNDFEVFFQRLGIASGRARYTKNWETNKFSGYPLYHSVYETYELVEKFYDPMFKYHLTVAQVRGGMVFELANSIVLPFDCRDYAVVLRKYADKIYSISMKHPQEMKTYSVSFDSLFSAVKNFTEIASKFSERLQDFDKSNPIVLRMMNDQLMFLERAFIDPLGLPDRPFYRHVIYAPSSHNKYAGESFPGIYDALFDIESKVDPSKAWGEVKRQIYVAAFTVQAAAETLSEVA

SMILES: CC(C)C[C@H](NC(=O)NC(C(=O)O)c1cc(O)cc(O)c1)C(=O)O (some centres undefined)
- Ki [1]: 13 µM

SMILES: COc1cc(C(NC(=O)N[C@@H](CCCCNC(=O)c2ccc(I)cc2)C(=O)O)C(=O)O)ccc1O (some centres undefined)
- Ki [2]: 0.285 µM

SMILES: O=C(N[C@@H](CCCCNC(=O)c1ccc(I)cc1)C(=O)O)N[C@H](Cc1ccco1)C(=O)O
- Ki [2]: 0.794 µM

SMILES: O=C(N[C@@H](CCCCNC(=O)c1ccc(I)cc1)C(=O)O)N[C@H](Cc1cccs1)C(=O)O
- Ki [2]: 0.795 µM

SMILES: O=C(N[C@@H](CCCCNC(=O)c1ccc(I)cc1)C(=O)O)NC1(C(=O)O)CC1
- Ki [2]: 0.318 µM

SMILES: O=C(N[C@@H](CCCCNC(=O)c1ccc(I)cc1)C(=O)O)N[C@@H](Cc1cscn1)C(=O)O
- Ki [2]: 0.0161 µM

SMILES: O=C(N[C@@H](CCCCNC(=O)c1ccc(I)cc1)C(=O)O)N[C@@H](Cc1ccncc1)C(=O)O
- Ki [2]: 0.105 µM

SMILES: CC(C)C[C@H](NC(=O)NC(C(=O)O)c1ccc(O)c(I)c1)C(=O)OC(C)C (some centres undefined)
- Ki [1]: 0.275 µM

SMILES: COC(=O)[C@H](CC(C)C)NC(=O)N[C@H](C(=O)O)c1ccc(O)c(I)c1
- Ki [1]: 0.475 µM

SMILES: O=C(N[C@@H](CCCCNC(=O)c1ccc(I)cc1)C(=O)O)N[C@H](C(=O)O)c1ccc(O)cc1
- Ki [2]: 0.0851 µM

SMILES: CC(C)C[C@H](NC(=O)N[C@H](C(=O)O)c1ccc(O)cc1)C(=O)O
- Ki [1]: 0.775 µM

SMILES: CC(C)C[C@H](NC(=O)N[C@@H](Cc1cccc(C(=O)O)c1)C(=O)O)C(=O)O
- Ki [1]: 3 µM

SMILES: O=C(N[C@@H](CCCCNC(=O)c1ccc(I)cc1)C(=O)O)N[C@@H](Cc1cccs1)C(=O)O
- Ki [2]: 0.0162 µM

SMILES: NC(=O)C[C@H](NC(=O)N[C@@H](CCCCNC(=O)c1ccc(I)cc1)C(=O)O)C(=O)O
- Ki [2]: 0.32 µM

SMILES: COC(=O)[C@H](CC(C)C)NC(=O)N[C@H](C(=O)O)c1cc(Br)c(O)c(Br)c1
- Ki [1]: 0.575 µM

SMILES: CSCCC[C@H](NC(=O)N[C@@H](CC(C)C)C(=O)O)C(=O)O
- Ki [1]: 3.5 µM

SMILES: N#CC[C@H](NC(=O)N[C@@H](CCCCNC(=O)c1ccc(I)cc1)C(=O)O)C(=O)O
- Ki [2]: 0.132 µM

SMILES: CCC[C@H](NC(=O)N[C@@H](CCCCNC(=O)c1ccc(I)cc1)C(=O)O)C(=O)O
- Ki [2]: 0.0523 µM

SMILES: C#CC[C@H](NC(=O)N[C@@H](CCCCNC(=O)c1ccc(I)cc1)C(=O)O)C(=O)O
- Ki [2]: 0.0053 µM

SMILES: CC(=O)SCCC[C@H](NC(=O)N[C@@H](CCCCNC(=O)c1ccc(I)cc1)C(=O)O)C(=O)O
- Ki [2]: 0.0241 µM

SMILES: COC(=O)[C@H](CC(C)C)NC(=O)N[C@H](C(=O)O)c1ccc(O)c(Br)c1
- Ki [1]: 0.4 µM

SMILES: O=C(N[C@@H](CCCCNC(=O)c1ccc(I)cc1)C(=O)O)N[C@@H](Cc1cccnc1)C(=O)O
- Ki [2]: 0.0972 µM

SMILES: COC(=O)[C@H](CC(C)C)NC(=O)NC(C(=O)O)c1ccc(O)c(OC)c1 (some centres undefined)
- Ki [1]: 0.153 µM

SMILES: COC(=O)[C@H](CC(C)C)NC(=O)N[C@@H](Cc1cccc(O)c1)C(=O)O
- Ki [1]: > 1000 µM

SMILES: COC(=O)[C@H](CC(C)C)NC(=O)NC(C(=O)O)c1ccc(O)c(F)c1 (some centres undefined)
- Ki [1]: 3 µM

SMILES: COC(=O)[C@H](CC(C)C)NC(=O)N[C@@H](CCCSC)C(=O)O
- Ki [1]: > 1000 µM

SMILES: COC(=O)[C@H](CC(C)C)NC(=O)NC(C(=O)O)c1cccc(O)c1 (some centres undefined)
- Ki [1]: > 1000 µM

SMILES: CC(C)C[C@H](NC(=O)NC(C(=O)O)c1cccc(O)c1)C(=O)O (some centres undefined)
- Ki [1]: > 1000 µM

SMILES: COc1cc(C(NC(=O)N[C@@H](CC(C)C)C(=O)OC(C)C)C(=O)O)ccc1O (some centres undefined)
- Ki [1]: 0.081 µM

SMILES: COC(=O)[C@H](CC(C)C)NC(=O)N[C@@H](CCC(N)=O)C(=O)O
- Ki [1]: 7.5 µM

SMILES: COC(=O)[C@H](CC(C)C)NC(=O)N[C@@H](Cc1cccc(C(=O)O)c1)C(=O)O
- Ki [1]: > 1000 µM

SMILES: O=C(N[C@@H](CCCCNC(=O)c1ccc(I)cc1)C(=O)O)N[C@@H](Cc1ccco1)C(=O)O
- Ki [2]: 0.0053 µM

SMILES: O=C(N[C@@H](CCCCNC(=O)c1ccc(I)cc1)C(=O)O)N[C@@H](CC1CO1)C(=O)O (some centres undefined)
- Ki [2]: 0.254 µM

SMILES: O=C(O)CNC(=O)N[C@@H](CCCCNC(=O)c1ccc(I)cc1)C(=O)O
- Ki [2]: 1.32 µM

SMILES: O=C(O)CCCNC(=O)N[C@@H](CCCCNC(=O)c1ccc(I)cc1)C(=O)O
- Ki [2]: 3.43 µM

SMILES: COC(=O)[C@H](CC(C)C)NC(=O)NC(C(=O)O)c1ccc(F)c(OC)c1 (some centres undefined)
- Ki [1]: > 1000 µM

SMILES: COc1cc(C(NC(=O)N[C@@H](CC(C)C)C(=O)O)C(=O)O)ccc1O (some centres undefined)
- Ki [1]: 0.25 µM

SMILES: CC(C)C[C@H](NC(=O)N[C@@H](Cc1ccc(O)cc1)C(=O)O)C(=O)O
- Ki [1]: 0.7 µM

SMILES: CC(C)C[C@H](NC(=O)N[C@@H](Cc1ccc(O)c(I)c1)C(=O)O)C(=O)O
- Ki [1]: 13 µM
